The target in data set [1] is T1, Nav1.7/D816N (Homo sapiens, UniProt Q15858, D827N).
T1 construct: expressed in transfected cells; host or cells: HEK293T
Kind of data set: Fast inactivation kinetics in Nav1.7/D816N channel. Type of data set: cell-based. As to conditions: 0.2 µM; between -10 mV and +10 mV; n = 7. The source says: (§1) The cDNA genes encoding rat Nav1.4 and human Nav1.7 were subcloned into vectors pRGB4 and pcDNA3.1-mod, respectively. Mutations of rNav1.4 (N655D, Q657E, and N655D/Q657E) and hNav1.7 (D816N, E818Q, and D816N/E818Q) were constructed using the Gene Tailor Site-Directed Mutagenesis system (Invitrogen, Carlsbad, CA, United States), according to the manufacturer’s instructions. Nav1.2–Nav1.7 and mutant plasmids together with eGFP were transiently transfected into HEK293T cells while Nav1.8 together with eGFP was transiently transfected into ND7/23 cells by Lipofectamine 2000 (Invitrogen, Carlsbad, CA, United States). […] Cells with green fluorescent protein fluorescence were selected for whole-cell patch-clamp recordings 24 h after transfection.
(§2) Whole-cell patch-clamp recordings were performed at room temperature (20–25°C) using an EPC 10 USB Patch Clamp Amplifier (HEKA, Elektronik, Lambrecht, Germany). […] Data was analyzed by software Igo Pro 6.10A (WaveMetrics, Lake Oswego, OR, United States), SigmaPlot 10.0 (Sigma-Aldrich, St. Louis, MO, United States), OriginPro 8 (OriginLab Corp., Northampton, MA, United States), and GraphPad Prism 5 (GraphPad Software, San Diego, CA, United States). […]
Fast inactivation time constants were calculated by fitting current decay traces with a single exponential function using the I–V protocol described above. […]

Data set [2] relates to acetic acid-induced writhing in mice. Type of data set: in vivo, ICR mice. As to conditions: counted 30 min, control 27.3 ± 3.3, mean ± SEM, n = 6–8. The protocol:
The ICR mice (18–22 g) used in this study were purchased from the Experimental Animal Center of SLac-kinda (Changsha, China). The animals were maintained at 20–25°C and freely allowed to standard rodent chow and water ad libitum. Ethical approval for in vivo experiments in animals was approved by the Animal Care and Use Committee (ACUC) at the Hunan Province Animal Management Office (HPAMO).
The abdominal writhing responses were counted for 30 min continuously.

The target of data set [3] is T2, hNav1.7 (Homo sapiens, UniProt Q15858).
T2 construct: expressed in transfected cells; host or cells: HEK293T
T2 sequence (O60939 30-215): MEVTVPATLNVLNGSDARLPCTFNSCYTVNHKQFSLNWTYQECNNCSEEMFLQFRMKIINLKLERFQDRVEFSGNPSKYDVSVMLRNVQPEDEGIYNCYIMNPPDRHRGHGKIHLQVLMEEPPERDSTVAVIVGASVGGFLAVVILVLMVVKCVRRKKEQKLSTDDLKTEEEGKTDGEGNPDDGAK
T2 sequence (Q15858 other isoform, or with tags, fused parts or gaps): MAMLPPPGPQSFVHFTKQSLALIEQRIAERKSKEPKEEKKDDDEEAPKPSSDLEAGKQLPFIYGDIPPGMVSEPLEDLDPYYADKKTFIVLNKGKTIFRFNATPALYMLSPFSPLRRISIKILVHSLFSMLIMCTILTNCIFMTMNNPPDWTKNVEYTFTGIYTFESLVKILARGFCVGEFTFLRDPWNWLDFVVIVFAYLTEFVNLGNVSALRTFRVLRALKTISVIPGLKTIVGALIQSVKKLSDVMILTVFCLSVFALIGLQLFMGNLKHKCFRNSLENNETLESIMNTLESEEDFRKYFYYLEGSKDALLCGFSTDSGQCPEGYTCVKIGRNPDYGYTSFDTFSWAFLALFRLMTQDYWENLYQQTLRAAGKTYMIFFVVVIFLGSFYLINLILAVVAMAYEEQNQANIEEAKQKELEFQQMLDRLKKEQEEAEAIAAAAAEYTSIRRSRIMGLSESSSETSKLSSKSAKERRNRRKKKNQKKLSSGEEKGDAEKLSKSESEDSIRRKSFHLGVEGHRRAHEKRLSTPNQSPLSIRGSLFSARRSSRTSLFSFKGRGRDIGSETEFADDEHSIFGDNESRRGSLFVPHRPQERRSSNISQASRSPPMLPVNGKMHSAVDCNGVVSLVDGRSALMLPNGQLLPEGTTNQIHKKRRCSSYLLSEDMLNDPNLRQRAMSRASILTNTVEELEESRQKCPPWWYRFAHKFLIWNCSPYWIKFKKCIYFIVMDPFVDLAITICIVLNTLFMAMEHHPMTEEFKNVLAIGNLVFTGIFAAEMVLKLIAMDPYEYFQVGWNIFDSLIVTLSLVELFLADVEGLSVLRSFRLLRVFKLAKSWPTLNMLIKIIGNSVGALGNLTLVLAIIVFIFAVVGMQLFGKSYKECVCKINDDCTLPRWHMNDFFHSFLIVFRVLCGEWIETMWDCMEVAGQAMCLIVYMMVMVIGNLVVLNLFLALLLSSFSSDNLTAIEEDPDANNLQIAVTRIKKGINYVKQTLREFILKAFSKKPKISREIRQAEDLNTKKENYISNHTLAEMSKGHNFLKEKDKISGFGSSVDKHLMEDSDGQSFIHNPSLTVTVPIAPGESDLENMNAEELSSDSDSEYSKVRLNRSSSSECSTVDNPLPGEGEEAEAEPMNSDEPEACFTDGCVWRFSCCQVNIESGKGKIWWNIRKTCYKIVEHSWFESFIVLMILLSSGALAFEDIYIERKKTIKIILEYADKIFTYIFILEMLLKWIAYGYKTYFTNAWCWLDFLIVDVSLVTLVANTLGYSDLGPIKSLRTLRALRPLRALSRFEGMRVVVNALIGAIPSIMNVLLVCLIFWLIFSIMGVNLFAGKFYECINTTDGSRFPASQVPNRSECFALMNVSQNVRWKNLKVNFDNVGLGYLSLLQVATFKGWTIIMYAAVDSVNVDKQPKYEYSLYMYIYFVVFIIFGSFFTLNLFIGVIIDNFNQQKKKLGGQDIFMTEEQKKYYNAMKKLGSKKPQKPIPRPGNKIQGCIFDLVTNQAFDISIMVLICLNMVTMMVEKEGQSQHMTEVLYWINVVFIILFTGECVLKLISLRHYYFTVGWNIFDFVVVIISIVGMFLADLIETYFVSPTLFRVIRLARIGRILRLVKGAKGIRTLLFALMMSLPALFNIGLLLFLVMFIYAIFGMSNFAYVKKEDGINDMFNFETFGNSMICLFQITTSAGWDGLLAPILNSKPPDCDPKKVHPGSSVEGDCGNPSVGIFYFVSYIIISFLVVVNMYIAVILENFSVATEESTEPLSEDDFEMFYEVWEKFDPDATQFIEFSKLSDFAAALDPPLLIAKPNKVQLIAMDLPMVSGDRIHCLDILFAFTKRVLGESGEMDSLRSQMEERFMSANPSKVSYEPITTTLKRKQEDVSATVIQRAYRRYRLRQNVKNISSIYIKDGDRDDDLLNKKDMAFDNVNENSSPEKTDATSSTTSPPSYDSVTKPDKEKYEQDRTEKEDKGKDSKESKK
T2 sequence (Q07699 19-218, further chain): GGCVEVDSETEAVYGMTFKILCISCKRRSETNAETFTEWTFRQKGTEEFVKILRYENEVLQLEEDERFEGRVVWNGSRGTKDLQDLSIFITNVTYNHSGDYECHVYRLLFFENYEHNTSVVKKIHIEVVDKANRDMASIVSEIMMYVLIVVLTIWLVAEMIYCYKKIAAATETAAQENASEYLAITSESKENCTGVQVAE
Kind of data set: Whole-cell patch-clamp, WT Nav1.7 in HEK293T cells. Type of data set: cell-based. The following applies: mean ± SEM.
Text: as §1, with “States). Additionally, plasmids β1- and β2-eGFP encoding the human β1 and β2 subunits, respectively, were co-transfected with those encoding WT Nav1.7 and Nav1.7 mutations in HEK293T cells. Human Nav1.9 was transfected into ND7/23 cells according to a previous report ([Zhou et al., 2017]).” for “States).”
as §2
(§3) Concentration-response curves were fitted using the following Hill logistic equation: y = fmax − (fmax − fmin)/(1 + (x/IC50)^n), where fmax and fmin, respectively, represent the channel’s maximum and minimum responses to toxins, fmin was set to 0, x represents toxin concentration and n is an empirical Hill coefficient. […] Peak inward currents from steady-state inactivation were normalized by the maximum current amplitude and fit with a Boltzmann equation I = Imin + 1/(1 + exp[Vm − V1/2/k]) where I is the current amplitude measured during the test depolarization, V1/2 is the midpoint of inaction, and k is the slope factor. […]
(Patch clamp records ionic current or voltage across a cell membrane.)

Data set [4] deals with T3, rat Nav1.4 (Rattus norvegicus, UniProt P15390).
T3 construct: expressed in transfected cells; host or cells: HEK293T
T3 sequence (P15390 whole entry): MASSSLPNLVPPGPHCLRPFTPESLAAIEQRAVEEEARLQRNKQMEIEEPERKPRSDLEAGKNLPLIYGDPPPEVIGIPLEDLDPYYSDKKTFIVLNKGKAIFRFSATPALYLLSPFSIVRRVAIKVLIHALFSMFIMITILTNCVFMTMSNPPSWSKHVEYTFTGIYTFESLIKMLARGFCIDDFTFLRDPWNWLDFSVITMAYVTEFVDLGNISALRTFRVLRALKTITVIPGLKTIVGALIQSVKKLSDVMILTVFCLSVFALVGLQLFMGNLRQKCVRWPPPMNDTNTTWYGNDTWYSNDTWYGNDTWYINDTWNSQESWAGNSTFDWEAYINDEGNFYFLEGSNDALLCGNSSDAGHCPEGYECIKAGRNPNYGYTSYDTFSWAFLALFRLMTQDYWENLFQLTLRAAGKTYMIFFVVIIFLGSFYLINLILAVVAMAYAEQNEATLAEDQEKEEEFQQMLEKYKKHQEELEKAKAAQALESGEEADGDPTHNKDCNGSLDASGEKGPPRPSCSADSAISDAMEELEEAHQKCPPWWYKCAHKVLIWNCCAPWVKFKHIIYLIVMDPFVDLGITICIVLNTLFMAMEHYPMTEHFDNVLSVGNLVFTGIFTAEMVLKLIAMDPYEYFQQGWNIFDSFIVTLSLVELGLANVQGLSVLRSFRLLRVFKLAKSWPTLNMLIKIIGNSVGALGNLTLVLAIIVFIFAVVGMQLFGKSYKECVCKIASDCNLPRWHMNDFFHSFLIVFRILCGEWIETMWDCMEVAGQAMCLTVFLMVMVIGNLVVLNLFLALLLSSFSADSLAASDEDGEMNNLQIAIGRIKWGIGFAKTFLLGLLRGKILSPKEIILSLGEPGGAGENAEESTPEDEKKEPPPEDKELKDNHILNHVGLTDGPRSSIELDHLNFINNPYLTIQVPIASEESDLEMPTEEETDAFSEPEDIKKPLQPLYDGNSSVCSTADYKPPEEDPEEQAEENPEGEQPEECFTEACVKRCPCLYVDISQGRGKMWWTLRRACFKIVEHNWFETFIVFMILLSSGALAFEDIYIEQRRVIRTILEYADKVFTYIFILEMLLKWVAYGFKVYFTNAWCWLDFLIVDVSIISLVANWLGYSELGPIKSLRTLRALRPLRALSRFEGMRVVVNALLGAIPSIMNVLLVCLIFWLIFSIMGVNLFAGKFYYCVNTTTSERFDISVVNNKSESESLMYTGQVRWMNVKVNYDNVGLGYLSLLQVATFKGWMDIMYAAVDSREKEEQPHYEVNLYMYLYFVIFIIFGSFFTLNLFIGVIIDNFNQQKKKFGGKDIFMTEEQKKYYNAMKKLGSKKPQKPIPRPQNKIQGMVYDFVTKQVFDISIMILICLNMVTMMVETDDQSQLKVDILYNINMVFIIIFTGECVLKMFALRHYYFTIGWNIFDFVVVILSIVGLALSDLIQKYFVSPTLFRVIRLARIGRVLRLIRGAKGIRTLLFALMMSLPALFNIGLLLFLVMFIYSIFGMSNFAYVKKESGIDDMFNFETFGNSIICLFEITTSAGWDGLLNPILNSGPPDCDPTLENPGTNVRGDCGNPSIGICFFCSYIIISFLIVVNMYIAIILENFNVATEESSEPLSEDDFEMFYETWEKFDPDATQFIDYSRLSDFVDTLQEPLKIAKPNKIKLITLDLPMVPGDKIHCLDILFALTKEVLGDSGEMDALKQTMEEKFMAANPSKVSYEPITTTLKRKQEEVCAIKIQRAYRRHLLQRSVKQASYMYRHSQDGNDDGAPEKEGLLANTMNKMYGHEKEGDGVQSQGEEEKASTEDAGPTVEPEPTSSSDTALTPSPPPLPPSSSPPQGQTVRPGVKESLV
Kind of data set: Whole-cell patch-clamp, WT Nav1.4 in HEK293T cells. Type of data set: cell-based.
Text: (§4) The cDNA genes encoding rat Nav1.4 and human Nav1.7 were subcloned into vectors pRGB4 and pcDNA3.1-mod, respectively. Mutations of rNav1.4 (N655D, Q657E, and N655D/Q657E) and hNav1.7 (D816N, E818Q, and D816N/E818Q) were constructed using the Gene Tailor Site-Directed Mutagenesis system (Invitrogen, Carlsbad, CA, United States), according to the manufacturer’s instructions. Nav1.2–Nav1.7 and mutant plasmids together with eGFP were transiently transfected into HEK293T cells while Nav1.8 together with eGFP was transiently transfected into ND7/23 cells by Lipofectamine 2000 (Invitrogen, Carlsbad, CA, United States). Additionally, plasmids β1- and β2-eGFP encoding the human β1 and β2 subunits, respectively, were co-transfected with those encoding WT Nav1.7 and Nav1.7 mutations in HEK293T cells. Human Nav1.9 was transfected into ND7/23 cells according to a previous report ([Zhou et al., 2017]). HEK293T and ND7/23 cells were grown under standard tissue culture conditions (5% CO2, 37°C) in Dulbecco’s modified Eagle’s medium (DMEM) supplemented with 10% fetal bovine serum (FBS). Cells with green fluorescent protein fluorescence were selected for whole-cell patch-clamp recordings 24 h after transfection.
Whole-cell patch-clamp recordings were performed at room temperature (20–25°C) using an EPC 10 USB Patch Clamp Amplifier (HEKA, Elektronik, Lambrecht, Germany). Suction pipettes with access resistance of 2.0–3.0 MΩ were made from borosilicate glass capillary tubes (thickness = 0.225 mm) using a two-step vertical microelectrode puller (PC-10; Narishige, Tokyo, Japan). The standard pipet solution contained (in mM): 140 CsCl, 10 NaCl, 1 EGTA, and 10 HEPES (pH 7.4). Bath solution contained (in mM): 140 NaCl, 2 CaCl2, 1 MgCl2, 5 KCl, 20 HEPES (pH 7.4), and 10 glucose. All chemicals were the products of Sigma-Aldrich (St. Louis, MO, United States) and dissolved in water. […] Data was analyzed by software Igo Pro 6.10A (WaveMetrics, Lake Oswego, OR, United States), SigmaPlot 10.0 (Sigma-Aldrich, St. Louis, MO, United States), OriginPro 8 (OriginLab Corp., Northampton, MA, United States), and GraphPad Prism 5 (GraphPad Software, San Diego, CA, United States). […]
as §3

Data set [5] deals with T4, Nav1.5 (Homo sapiens, UniProt Q14524).
T4 construct: expressed in transfected cells; host or cells: HEK293T
The data set is described as follows: in vitro.
Text: as §4, with “HEK293T and ND7/23 cells were grown under standard tissue culture conditions (5% CO2, 37°C) in Dulbecco’s modified Eagle’s medium (DMEM) supplemented with 10% fetal bovine serum (FBS).” left out
as §2, §3

Where two headings read alike, the source gives them in different places. Where a SMILES comes first, the peptide text is derived from it. Bridges are numbered along the chain shown (N, C = ends).

T1 sequence (O60939 30-215): as the sequence (O60939 30-215) above
T1 sequence (Q07699 19-218, further chain): as the sequence (Q07699 19-218, further chain) above
T1 sequence (Q15858 other isoform, or with tags, fused parts or gaps D816N): as the sequence (Q15858 other isoform, or with tags, fused parts or gaps) above, with D816N counted along it

For orientation: inhibition means the share of the control response that was lost under treatment. A word on the IC50: it is the concentration needed to halve the response being measured. Low readings indicate inhibition by little substance, high ones a need for much substance. Take `CC(C)C[C@H](NC(=O)[C@H](CC(=O)O)NC(=O)[C@H](Cc1ccc(O)cc1)NC(=O)[C@H](CCCCN)NC(=O)[C@@H]1CSSC[C@@H]2NC(=O)[C@H](CCCCN)NC(=O)[C@H](CC(=O)O)NC(=O)[C@H](CC(N)=O)NC(=O)[C@H](CO)NC(=O)[C@@H]3CCCN3C(=O)[C@H](CC(N)=O)NC(=O)[C@@H]3CSSC[C@H](NC(=O)[C@H](C(C)C)NC(=O)[C@H](CC(C)C)NC(=O)[C@H](CO)NC(=O)[C@H](CO)NC(=O)[C@H](CO)NC(=O)[C@H](CCCCN)NC(=O)[C@H](CSSC[C@H](NC(=O)[C@H](C)N)C(=O)N[C@@H](CC(C)C)C(=O)NCC(=O)N[C@@H](Cc4ccccc4)C(=O)NCC(=O)N[C@@H](CCC(=O)O)C(=O)N[C@@H](CCCCN)C(=O)N3)NC2=O)C(=O)N[C@@H](CO)C(=O)N[C@@H](CCC(N)=O)C(=O)N[C@@H](CCCCN)C(=O)N[C@@H](Cc2c[nH]cn2)C(=O)N[C@@H](CCCCN)C(=O)N[C@@H](Cc2c[nH]c3ccccc23)C(=O)N1)C(=O)O` [Ca2a] (H-ACLGFGEKCNPSNDKCCKSSSLVCSQKHKWCKYDL-OH; disulfide 2-17, 9-24, 16-31 (inferred); N-terminus and C-terminus assumed): the “inactivation time constant of Nav1.7/D816N” value in data set [1] is listed as “did not alter inactivation time constant”. Moreover, the writhing numbers in data set [2] (50 μg/kg i.p. 15 min prior to 0.8% acetic acid) was determined as 15.8 ± 2.4; in data set [2] (100 μg/kg i.p. 15 min prior to 0.8% acetic acid), 10.5 ± 2.8; in data set [2] (200 μg/kg i.p. 15 min prior to 0.8% acetic acid) it was 5.4 ± 2.2. In addition, in data set [3] (HEK-293T, 0.2 μM, read-out: inhibition of Nav1.7 current), the inhibition at 0.2 µM is 64.5 ± 2.1%. Further, the inhibition at 1 µM in data set [3] (HEK-293T, 1 μM, 50 ms depolarization to −10 mV from −100 mV, room temperature, read-out: inhibition on Nav1.7 currents) is 87.3 ± 4.4%. Also, the IC50 was 0.0981 ± 0.0033 µM in data set [3] (whole-cell patch-clamp, 50 ms to −10 mV from −100 mV, n = 4–7 cells per data point); more than 10 µM in data set [4] (skeletal muscle isoform, whole-cell patch-clamp, HEK293T); more than 10 µM in data set [5] (cardiac muscle isoform, whole-cell patch-clamp, HEK293T). The “inhibitory effect on WT Nav1.4” value in data set [4] (1 μM, HEK293T, n = 4–5 cells) is reported as “no inhibitory effect”. Besides, the “selectivity for Nav1.7 against Nav1.4” value in data set [4] (skeletal isoform Nav1.4 vs Nav1.7) is recorded as “more than 100 fold”. In data set [4] (up to 10 μM, HEK293T), the “inhibitory effect on Nav1.4 currents” value is “no inhibitory effects”. Also, the selectivity ratio in data set [5] (cardiac isoform Nav1.5 vs Nav1.7, read-out: selectivity for Nav1.7 against Nav1.5) was more than 100. Moreover, the “inhibitory effect on Nav1.5 currents” value in data set [5] (up to 10 μM, HEK293T) is listed as “no inhibitory effects”.

The values are drawn from article PMC6198068, “Discovery of a Novel Nav1.7 Inhibitor From Cyriopagopus albostriatus Venom With Potent Analgesic Efficacy” (Frontiers in Pharmacology, 2018).
